Assay results published in patent publication US20210047380A1, “A NEUROTROPHIC PEPTIDE FOR THE THERAPEUTIC TREATMENT OF NEURODEGENERATIVE AND/OR INFLAMMATORY DISEASES” (CONSIGLIO NAZIONALE DELLE RICERCHE, priority 2018, published 2021).

Assays:
[1] = test system: hippocampal synaptic plasticity (DG-LTP); experiment: Long-term potentiation (LTP) in dentate gyrus of hippocampal slices after intranasal administration; conditions: intranasal once a day for four days, 60 minutes after HFS
[2] = test system: PC12 cells; experiment: PC12 cell neuronal differentiation test; format: cell-based, rat; conditions: serum-free medium, 50 ng/ml mNGF or 100 ng/ml hproNGF-A or hproNGF-B, five-day incubation
[3] = test system: hippocampal dentate gyrus neurogenesis; experiment: Hippocampal neurogenesis (BrdU, DCX, NeuN confocal microscopy) after intranasal administration; format: in vivo, rat
Excerpt: The box-plot graphs enclosed by a broken line show the results from the quantitative analyses in healthy rats (A) and diabetic rats (B) of cells that have incorporated BrdU and are at the same time positive for Doublecortin (DCX) (graphs enclosed by a dashed line box) or NeuN (graphs enclosed by a dotted line box). Median±interquartile, n=4 animals per experimental group.
It is also known that diabetic encephalopathy impairs the hippocampal neurogenesis process. In order to assess the effects induced by exogenous administration of the two hproNGF peptide isoforms on hippocampal neurogenesis, the hproNGF-A peptide for use according to the invention and the known hproNGF-B peptide were administered to healthy and diabetic rats.
In order to assess the effects of the treatments on dentate gyrus neurogenesis, at the time of diabetes induction, rats were inoculated with bromodeoxyuridine (BrdU), which intercalates into newly formed DNA, specifically labelling cells proliferating at the time of inoculation. Subsequently, a confocal microscopy analysis was performed by labelling with anti-BrdU antibodies and specific antibodies to detect the presence of immature neurons (antibodies to doublecortin, DCX) or mature neurons (antibodies to NeuN).

[4] = test system: hippocampal cells of the dentate gyrus (granule layer and hilus); experiment: Hoechst-positive cell count in hippocampal dentate gyrus after intranasal administration; format: in vivo, rat; conditions: control (healthy) rats, intranasal once a day for four days
Procedure: The broken lines show regions of the Dentate Gyrus (DG-H and DG-Granule Layer) where cell counts were performed, shown in the graphs in FIG. 4B.
To check whether the opposite nature of the two different hproNGF isoforms could affect the number of hippocampal cells and whether the intranasal administration of proNGF could have an effect on diabetes-induced neuronal loss, Hoechst-positive cells were analysed by confocal microscopy in both the cell layers of the hippocampal dentate gyrus, the granule layer (GL) and the hilus (HL) (as shown in FIG. 4A). The rats were deeply anesthetized and transcardially perfused with 0.1 M phosphate buffer followed by 4% paraformaldehyde fixative in 0.1 M phosphate buffer. The brains were removed and cryoprotected with 30% sucrose in phosphate buffer. 40 μm-thick coronal sections of both hemispheres. ranging −2.40 /−3.72 mm from the bregma according to the Paxinos Rat Brain Atlas, were cut on a cryostat and then processed. The brain sections were pre-incubated for 2 hours at room temperature (RT) with PBS containing 10% donkey serum (v/v), 1% BSA (w/v) and 0.3% Triton X-100 (v/v). After washing with PBS, the sections were incubated (2 h, RT) with specific secondary antibodies. Subsequently, the sections were rinsed three times in PBS and incubated for 10 minutes with Hoechst dye for specific staining of the nuclei. […]

[5] = test system: PC12 cells; experiment: Viability test on PC12 cells in suspension after serum deprivation; format: cell-based, rat; conditions: 48 hours of culture, 50 ng/ml mNGF or 100 ng/ml hproNGF-A or hproNGF-B
Procedure: FIG. 3B is a histogram showing the results from the viability test performed on PC12 cells in suspension after addition of the factors listed under A above.
PC12 cells were cultured in RPMI 1640 culture medium supplemented with 10% horse serum and 5% calf serum in a humidified atmosphere with 5% CO2 at 37° C. The exponentially growing cells were then seeded on 6-well plates containing poly-L-Lysine, to allow adherence of the cells to the bottom of the well.

[6] = test system: extracellular proteases; experiment: Permanence in conditioned culture medium of stimulated PC12 cells (Western blot), resistance to extracellular proteases; format: in vitro ADME; conditions: conditioned medium of rat PC12 cells, sampled at 0, 4, 8 and 24 hours post-stimulation
Procedure: (§1) (A) Representative photomicrograph of the results from the Western blot analysis performed on conditioned culture media of rat PC12 cells stimulated with hproNGF-A (upper panel) or mNGF (lower panel) for 24 hours. The samples examined were collected at time 0 and 4, 8 and 24 hours post-stimulation. (B) Representative photomicrographs of the immunolocalization of the tyrosine hydroxylase enzyme on brain tissue (locus coeruleus) sections taken from rats after intranasal administration of proNGFA or mNGF.
In order to assess the resistance of hproNGF-A and mature NGF to the action of extracellular proteases, rat pheochromocytoma cells (PC12) were stimulated with either of the two peptides. Samples collected from conditioned cell culture media at successive times (time zero; 4, 8 and 24 hours post-stimulation) were subjected to Western blot assay in order to verify the permanence of hproNGF-A and mNGF in the culture medium.

[7] = test system: noradrenergic fibres in the locus coeruleus; experiment: Tyrosine hydroxylase immunolocalization in locus coeruleus after intranasal administration (central regulation of sympathetic activity); format: in vivo, rat; conditions: adult rats
Procedure: as §1
The present inventors also carried out experiments aimed at testing the effects of the action of NGF and the proNGF-A peptide on the central regulation of the neuronal sympathetic activity. In short, the NGF or proNGF-A peptides were administered intranasally to the brain parenchyma of adult rats. Subsequently, the noradrenergic neurons located in the locus coeruleus, a brain region responsible for the central control of the functionality of the sympathetic nervous system, were analysed by immunolabelling on thin slices for tyrosine hydroxylase enzyme. Tyrosine hydroxylase enzyme represents an indirect measurement of the production of the noradrenaline neurotransmitter in neurons of certain brain areas. […]

Row | Substance | extent of DG-LTP compared to saline-treated group ([1]; control groups (healthy animals)) [%] | DG-LTP compared to saline-treated diabetic rats (improvement of streptozotocin-induced decrease) ([1]; diabetic rats (streptozotocin)) | neuronal differentiation of PC12 cells (neurites) [2] | diabetes-induced alteration in the number of BrdU+-cells ([3]; diabetic rats) | percentage of BrdU+-cells expressing DCX ([3]; diabetic rats) | number of BrdU-immunopositive cells ([3]; healthy rats) | percentage of cells simultaneously immunopositive for BrdU and DCX ([3]; healthy rats) | number of cells in hilus and granule layer of dentate gyrus compared to saline-treated rats [4] | percentage of living cells [5] | time the peptide remains in the culture medium after the stimulus [6] | arborization (sprouting) of noradrenergic fibres containing tyrosine hydroxylase in the locus coeruleus [7]
1 | hproNGF-B: already known human proNGF variant (accession number NM_002506.2), precursor of mature NGF, 221 amino acids long | 28 | not different from that measured in saline-treated diabetic rats | showed evident signs of suffering | no influence | no influence | significant reduction | significant reduction | decreased significantly | induces a decrease in the percentage of living cells | – | –
2 | mNGF: mature Nerve Growth Factor (NGF) peptide, neurotrophin used as comparator | – | – | exhibited the characteristic extensions (neurites) | – | – | – | – | – | maintain a significant proportion of living cells | not more than 8 hours | causes arborization (sprouting) of the noradrenergic fibres
